# Results taken from publication PMC10720538, “Population pharmacokinetic modeling and target attainment analyses of rezafungin for the treatment of candidemia and invasive candidiasis” (Antimicrobial Agents and Chemotherapy, 2023).
# *1 amine or outer side, *2 acyl side, *3 side chain or, on linkers, in order; H or OH if unused. Where a SMILES comes first, the peptide text is derived from it. Bridges are numbered along the chain shown (N, C = ends). [ ]: non-standard residue; d: D form. The star is where a group is joined. Orn(4R-OH,5R-OCH2CH2NMe3+) = C[N+](C)(C)CCO[C@@H](N[*:3])[C@H](O)C[C@H](N[*:1])C(=O)[*:2]; pTerphenylCO(4''-OnC5H11) = CCCCCOc1ccc(-c2ccc(-c3ccc(C(=O)*)cc3)cc2)cc1; hTyr(3S-OH,4S-OH) = N[C@H](C(=O)O)[C@H](O)[C@@H](O)c1ccc(O)cc1; Pro(3S-OH,4S-Me) = C[C@H]1CN[C@H](C(=O)O)[C@H]1O; Hyp = O=C(O)[C@@H]1C[C@@H](O)CN1
# Tests used:
# Candida auris = conditions: CLSI MIC, neutropenic mouse, published fAUC0–24 h/MIC target multiplied by 7, ref Lepak et al., 2018 (e01572-18), cited from earlier work
# Description: (§1) TABLE 4 Nonclinical pharmacokinetic/pharmacodynamic targets, by species^a^,^b^,^c | column: Stasis / fAUC0–168h/MIC median; 1-Log drop / fAUC0–168h/MIC median || FIG 4 Probability of pharmacokinetic/pharmacodynamic target attainment for 400 mg rezafungin against Candida species using CLSI methodology. f, free. TEXT PRINTED IN THE PICTURE: no label printed: Candida albicans − fAUC/MIC Targets: CLSI Target: Stasis 20.5; Candida albicans − fAUC/MIC Targets: CLSI Target: 1-Log Drop in CFU 37.2; Candida glabrata − fAUC/MIC Targets: CLSI Target: Stasis 0.5; Candida glabrata − fAUC/MIC Targets: CLSI Target: 1-Log Drop in CFU 2.94; Candida parapsilosis − fAUC/MIC Targets: CLSI Target: Stasis 18.2; Candida auris − fAUC/MIC Targets: CLSI Target: Stasis 12.1; Can ...
# Candida tropicalis = conditions: CLSI MIC, neutropenic mouse, ref Lepak et al., 2019 (e01556-19), cited from earlier work
# Description: as §1
# Candida albicans = conditions: CLSI MIC, neutropenic mouse, ref Lepak et al., 2018 (e02154-17), cited from earlier work
# Description: as §1
# Candida dubliniensis = conditions: CLSI MIC, neutropenic mouse, ref Lepak et al., 2019 (e01556-19), cited from earlier work
# Description: as §1
# Candida glabrata = conditions: CLSI MIC, neutropenic mouse, ref Lepak et al., 2018 (e02154-17), cited from earlier work
# Description: as §1
# Candida parapsilosis = conditions: ref Lepak et al., 2018 (e02154-17), cited from earlier work
# Description: TABLE 4 Nonclinical pharmacokinetic/pharmacodynamic targets, by species^a^,^b^,^c | column: Method; Stasis / fAUC0–168h/MIC median || FIG 4 Probability of pharmacokinetic/pharmacodynamic target attainment for 400 mg rezafungin against Candida species using CLSI methodology. f, free. […] This has been observed for other echinocandins and appears to be limited to nonclinical testing as C. parapsilosis responds well clinically to echinocandin therapy despite the intrinsically elevated MICs of this species ([29]). It is believed that the C. parapsilosis strains utilized in the model (more than 80% of which were not suitable) are highly fit or virulent and therefore may result in elevated targets ([30]).
# [1] = Population pharmacokinetic model of rezafungin (three-compartment, NONMEM) from plasma concentrations of Phase 1, 2 and 3 studies; type: in vivo, human
# Description: Data from single- and multiple-dose studies in healthy volunteers and patients, with doses ranging from 50 to 1,400 mg, were included in the PK analysis. All doses of rezafungin were administered via IV infusion. The PK data set consisted of a total of 2,512 rezafungin concentration records from 277 subjects, of which five records were identified as below the lower limit of quantitation postdose and five other records were identified as above 50 µg/mL, which was the upper limit of quantitation. Those records together represent less than 0.5% of the observed concentrations and were excluded from the analysis.
# Starting from the previously developed four-compartment PK model ([13]), structurally simpler two- and three-compartment models with IIV in various parameters were developed and compared. During the initial modeling exercise, eight additional records were identified as outliers using conditional weighted residuals greater than 5 or smaller than −5 as a criterion and were excluded from model development. […] The two other compartments were considered peripheral distribution compartments (V2 and V3). When IIVs in V2 and V3 were included in the model, it was recognized that the individual IIVs on V2 and V3 were highly correlated, and, in addition, the typical estimates of V2 and V3 were very similar. Therefore, a model with a shared IIV term and with a single shared parameter for V2 and V3 [peripheral volume (V23)] was tested. […] The estimation of a four-compartment model achieved a moderate improvement in the value of the objective function (VOF) (a decrease of 49 points). However, there was no discernible improvement in the goodness-of-fit model diagnostics, and the residual error was nearly identical. Therefore, the three-compartment structural model was considered to adequately describe the PK of rezafungin without overparameterization. The inclusion of IIV terms was tested on various PK parameters, including clearance (CL), central volume of distribution (V1), V23, intercompartmental clearance 1 (Q2), and intercompartmental clearance 2 (Q3). Interindividual variability terms on CL, V1, and V23 were sufficient to achieve good individual predictions. For the residual variability (RV), the constant coefficient of variation (CCV) and combined additive and proportional error models were tested.
# The final PK model of rezafungin is a three-compartment model with first-order elimination, characterized by the parameters CL, V1, V23, Q2, and Q3. The variability model included IIV in V1, V23, and CL, their covariances, and a proportional RV model (Table 2). All fixed and random effect parameters, including those of the covariance terms, were estimated with reasonable precision (<39%RSE). The magnitudes of the IIV parameters were moderate for all parameters: 30.5 coefficient of variation expressed as a percent (%CV) for CL, 37.6%CV for V1, and 29.3%CV for V23. Eta shrinkage was low for all parameters (<11%), and the residual error was also low (9.74%CV).
# Data were obtained from five Phase 1 studies (CD101.IV.1.01, CD101.IV.1.02, CD101.IV.1.06, CD101.IV.1.07, and CD101.IV.1.15), a Phase 2 study (CD101.IV.2.03; STRIVE), and a Phase 3 study (CD101.IV.3.05; ReSTORE) (Table S1). All study participants met the inclusion and exclusion criteria for the study in which they were enrolled. All clinical studies were conducted in compliance with International Council for Harmonisation guidelines on Good Clinical Practice.
# Dosing regimens for rezafungin are described in Table S1. Data from both single- and multiple-dose studies, with doses ranging from 50 to 1,400 mg, were included in this analysis. All doses of rezafungin were administered via IV infusion.
# Dense PK samples were collected in the Phase 1 studies, and a mixture of dense and sparse PK samples were collected in the Phase 2 and Phase 3 studies. […]
# [2] = final population PK model, population mean
# [3] = final population PK model, population mean, covariate effect
structure (smiles),measurement,setting,value
"CCCCCOc1ccc(-c2ccc(-c3ccc(C(=O)N[C@H]4C[C@@H](O)[C@@H](OCC[N+](C)(C)C)NC(=O)[C@@H]5[C@@H](O)[C@@H](C)CN5C(=O)[C@H]([C@@H](C)O)NC(=O)[C@H]([C@H](O)[C@@H](O)c5ccc(O)cc5)NC(=O)[C@@H]5C[C@@H](O)CN5C(=O)[C@H]([C@@H](C)O)NC4=O)cc3)cc2)cc1 [rezafungin] ({pTerphenylCO(4''-OnC5H11)}-[Orn(4R-OH,5R-OCH2CH2NMe3+)]T[Hyp][hTyr(3S-OH,4S-OH)]T[Pro(3S-OH,4S-Me)]; lactam 1-C)","1-Log drop, fAUC0–168h/MIC median",Candida auris; 1-log10 drop in CFU,38.4
same,"Stasis, fAUC0–168h/MIC median",Candida auris; net fungal stasis,12.1
same,"1-Log drop, fAUC0–168h/MIC median",Candida tropicalis; 1-log10 drop in CFU,148.9
same,"Stasis, fAUC0–168h/MIC median",Candida tropicalis; net fungal stasis,86.5
same,"1-Log drop, fAUC0–168h/MIC median",Candida albicans; 1-log10 drop in CFU,37.2
same,"Stasis, fAUC0–168h/MIC median",Candida albicans; net fungal stasis,20.5
same,"1-Log drop, fAUC0–168h/MIC median",Candida dubliniensis; 1-log10 drop in CFU,228.3
same,"Stasis, fAUC0–168h/MIC median",Candida dubliniensis; net fungal stasis,35.1
same,"1-Log drop, fAUC0–168h/MIC median",Candida glabrata; 1-log10 drop in CFU,2.94
same,"Stasis, fAUC0–168h/MIC median",Candida glabrata; net fungal stasis,0.5
same,"Stasis, fAUC0–168h/MIC median","Candida parapsilosis; CLSI MIC, net fungal stasis, neutropenic mouse",18.2
same,maximum effect,Candida parapsilosis; nonclinical model,only achieved stasis
same,CL,"[1]; BSA 1.3 m^2, based on the final model estimates",0.235 L/h
same,CL,"[1]; BSA 2.6 m^2, based on the final model estimates",0.433 L/h
same,lower CL in healthy subjects than infected subjects or those with hepatic impairment,[1]; final model estimates,27.6%
same,"Q2, Distribution clearance 1",[1]; [2],0.236 L/h
same,"Q3, Distribution clearance 2",[1]; [2],12.4 L/h
same,"V23, Peripheral volume 1 and 2","[1]; final population PK model, population mean, BSA 1.9 m^2, ALB 3.2 g/dL",19.1 L
same,"CL, Central clearance","[1]; final population PK model, population mean, IV infusion, 277 subjects, typical value for disease state, BSA 1.9 m^2",0.328 L/h
same,Exponent of (BSA/1.9) for V1,[1]; [3],1.56
same,Exponent of (BSA/1.9) for V23,[1]; [3],1.17
same,"V1, Central volume","[1]; final population PK model, population mean, typical value for disease state, BSA 1.9 m^2",17.7 L
